According to patent US7449495B2, “Retinoid derivatives with antiangiogenic, antitumoral and proapoptotic activities” (Sigma-Tau Industrie Farmaceutiche Riunite S.p.A., priority 2001, dated 2008):
Where two headings read alike, the source gives them in different places.

Experiments:
[1] = tested on: NB4 acute promyelocytic leukaemia cell line; assay: Cytotoxicity test (sulphorodamine B), NB4; type: cell-based, human; settings: 24 h incubation, survival 48 h after removal, read-out: IC50
Description: To carry out the cytotoxicity tests, two acute promyelocytic leukaemia (APL) cell lines were used. • 1. Cell line NB4, carrying the chromosomal translocation t(15; 17) which generates the fusion protein PML/RARα. This cell line is extremely sensitive to the differentiating action of pharmaceutical doses of ATRA (10^−7-10^−6 M); • 2. Cell line HL60, which responds to ATRA less sensitively with respect to cell line NB4.
These cell lines were maintained in RPMI 1640 containing 10% foetal calf serum (FCS) and 1% glutamine.
The cytotoxicity tests were carried out using NB4 or HL-60 cells in suspension (10000/well). The cells were seeded in a volume of 250 μl in 96 well plates and incubated for 24 hours at 37° C. The following day, test compound ST 1926 [(2E)-3-[3′-(1-Adamantyl)-4′-hydroxy[1,1′-biphenyl]-4-yl]-2-propenoate/ic acid] was added at increasing concentrations, and the cells were incubated for a further 24 hours at 37° C. in a humidified atmosphere containing 5% CO2. On the 3rd day, the medium was removed by centrifuging the plate at 1600×g for 10 min and the supernatant decanted. 250 μl of PBS were added; then the plates were centrifuged again at 1600×g for 10 minutes and the supernatant decanted. 200 μl/well of RPMI 1640 medium containing 10% FCS were added and the plates were incubated at 37° C. for a further 48 hours. On the 5th day, the plates were again centrifuged at 1600×g for 10 minutes, and the medium was removed by upturning the plates, 200 μl of PBS and 50 μl of cold, 80% TCA were added. The plates were then left to incubate on ice for at least 1 hour. The TCA was removed by upturning; the plates were washed three times by immersion in distilled water and dried first on paper, then with a jet of hot air. To all wells were added 200 μl of 0.4% sulphorodamine B in 1% acetic acid. The plates were incubated at room temperature for a further 30 minutes. […] The optical density was measured using a Multiskan spectrophotometer at 540 nm.
(§1) Cell survival was determined by incubation with ST1926 for 24 hours, 48 hours after the removal of the compound. […]

osteosarcoma SAOS = assay: Cytotoxicity test (sulphorodamine B), SAOS; type: cell-based; settings: Homo sapiens, 24 h incubation, survival 48 h after removal
Description: Different cell lines deriving from solid tumors were also used. • 1. Human prostate carcinoma PC3 and DU145. These cell lines were maintained in RPMI 1640 medium containing 10% FCS, 1% sodium pyruvate and 1% glutamine; • 2. Human colon adenocarcinoma LoVo. This cell line was maintained in HAM's F-12 medium, containing 10% FCS and 1% glutamine. • 3. Human ovarian carcinoma such as A2780 and A2780/Dx, sensitive and resistant to drugs, respectively (doxorubicin, taxol, etoposide, vincristine); IGROV-1 and IGROV-1/Pt, sensitive and resistant to platinum-based chemotherapy, respectively, were maintained in RPMI 1640 medium containing 10% FCS, 1% sodium pyruvate and 1% glutamine; • 4. Human melanoma MeWo and MeS 2.21, glioblastoma GBM, no small cell lung carcinomas A431, NCI—H460, osteosarcomas SAOS and U2OS were maintained in RPMI 1640 medium containing 10% FCS, 1% sodium pyruvate and 1% glutamine.
The cytotoxicity tests were carried out using NB4 or HL-60 cells in suspension (10000/well). The cells were seeded in a volume of 250 μl in 96 well plates and incubated for 24 hours at 37° C. […] The optical density was measured using a Multiskan spectrophotometer at 540 nm. […]
as §1

[2] = tested on: chicken chorioallantoic membrane vessels, bFGF induced; assay: Angiostatic activity in chicken chorioallantoic membrane (CAM) model; type: in vivo; settings: bFGF 0.05 + compound 0.25 μg/embryo
Description: The chicken chorioallantoic membrane is a very vascularised membrane in which the vessels make their appearance at the 4th day of development, develop an arteriovenal system by the 8th day of development, and actively proliferate until the 11th day.
The aim of the study was to follow vasal development in the CAM under basal conditions and in the presence of an inducer bFGF (basic Fibroblast Growth Factor) of vasoproliferation. This study used chicken embryonal eggs at the initial stage of their development. On the 3rd day of development an operation to open the shells was performed to make the vessels of the CAM visible. The treatment was administered on the 9th day of development by applying a fragment of sterile gelatine (GELFOAM Pharmacia-Upjohn) about 1 mm^3, to the CAM surface, onto which was administered the bFGF (50 ng/embryo) or the products in question, for 3 consecutive days.
The evaluation of the effect of the molecule on vasoproliferation was obtained by a comparison of the vessels at the time of zero treatment with these of later times (12th day).

[3] = tested on: ornithine decarboxylase in mouse epidermis; settings: in vivo; cited from earlier work

SMILES: O=C(O)/C=C/c1ccc(-c2ccc(O)c(C34CC5CC(CC(C5)C3)C4)c2)cc1 [ST1926, E-4-(3-(1-adamantyl)-4-hydroxyphenyl)cinnamic acid]
- IC50 [1]: 20 nM
- IC50 ([1]; Homo sapiens): 22 nM
- IC50 (osteosarcoma SAOS): 250 nM
- Δvessels, change vs bFGF alone [2]: (−53%)
- 12th day (72 hours), number of vessels per sponge ([2]; mean ± SE): 12 ± 2 vessels per sponge
- Δvessels ([2]; mean ± SE): 9 ± 2 vessels per sponge
- activity in the ODC assay compared with compound 1 (in words) [3]: lower activities
